Where a SMILES comes first, the peptide text is derived from it. [ ]: non-standard residue; d: D form. Cha = N[C@@H](CC1CCCCC1)C(=O)O; Chg = N[C@H](C(=O)O)C1CCCCC1; Tle = CC(C)(C)[C@H](N)C(=O)O; dDab = NCC[C@@H](N)C(=O)O; Orn = NCCC[C@H](N)C(=O)O; Dab = NCC[C@H](N)C(=O)O; Nva = CCC[C@H](N)C(=O)O
Test system: human red blood cells (hRBC)
Type: cell-based
Conditions: red cells of human, 1 h
Procedure: The peptides were tested for their hemolytic activity against human red blood cells (hRBC). Fresh hRBC were washed three times with phosphate buffered saline (PBS) and centrifuged for 10 min at 2000×g. Compounds (100 μg/ml) were incubated with 20% hRBC (v/v) for 1 h at 37° C. and shaking at 300 rpm. The final erythrocyte concentration was approximately 0.9×10^9 cells/ml. A value of 0% and 100% cell lyses, respectively, was determined by incubation of hRBC in the presence of PBS containing 0.001% acetic acid and 2.5% Triton X-100 in H2O, respectively. The samples were centrifuged, the supernatants were 8-fold diluted in PBS buffer and the optical densities (OD) were measured at 540 nm. The 100% lyses value (OD540H2O) gave an OD540 of approximately 0.5-1.0. Percent hemolysis was calculated as follows: (OD540peptide/OD540H2O)×100%.

SMILES	Hemolysis at 100 μg/ml [%]
CC[C@H](C)[C@@H]1NC(=O)[C@@H]2CCCN2C(=O)[C@H]2CCCN2C(=O)[C@H](CO)NC(=O)[C@H](C)NC(=O)[C@H](C(C)(C)C)NC(=O)[C@H](CCN)NC(=O)[C@H](Cc2c[nH]c3ccccc23)NC(=O)[C@H](CCN)NC(=O)[C@@H](CCN)NC(=O)[C@H](CCCN)NC(=O)[C@H](CCN)NC(=O)[C@H](Cc2ccc(O)cc2)NC(=O)[C@H](Cc2c[nH]cn2)NC1=O [compound 20, cyclo(-Ile-His-Tyr-Dab-Orn-^DDab-Dab-Trp-Dab-tBuGly-Ala-Ser-^DPro-Pro-)] (cyclo(IHY[Dab][Orn][dDab][Dab]W[Dab][Tle]AS[dP]P))	0
CC(C)C[C@@H]1NC(=O)[C@@H]2CCCN2C(=O)[C@H]2CCCN2C(=O)[C@H](CO)NC(=O)[C@H](CO)NC(=O)[C@H](CC2CCCCC2)NC(=O)[C@H](CCN)NC(=O)[C@H](Cc2c[nH]c3ccccc23)NC(=O)[C@H](CCN)NC(=O)[C@@H](CCN)NC(=O)[C@H](CCCCN)NC(=O)[C@H](CCN)NC(=O)[C@H](Cc2ccc(O)cc2)NC(=O)[C@H](Cc2c[nH]c3ccccc23)NC1=O [compound 31, cyclo(-Leu-Trp-Tyr-Dab-Lys-^DDab-Dab-Trp-Dab-Cha-Ser-Ser-^DPro-Pro-)] (cyclo(LWY[Dab]K[dDab][Dab]W[Dab][Cha]SS[dP]P))	1
CC(C)C[C@@H]1NC(=O)[C@@H]2CCCN2C(=O)[C@H]2CCCN2C(=O)[C@H](CO)NC(=O)[C@H](C)NC(=O)[C@H](C2CCCCC2)NC(=O)[C@H](CCN)NC(=O)[C@H](Cc2c[nH]c3ccccc23)NC(=O)[C@H](CCN)NC(=O)[C@H](CCN)NC(=O)[C@H](CCCN)NC(=O)[C@H](CCN)NC(=O)[C@H](Cc2ccc(O)cc2)NC(=O)[C@H](Cc2c[nH]cn2)NC1=O [compound 22, cyclo(-Leu-His-Tyr-Dab-Orn-Dab-Dab-Trp-Dab-Chg-Ala-Ser-^DPro-Pro-)] (cyclo(LHY[Dab][Orn][Dab][Dab]W[Dab][Chg]AS[dP]P))	0
C[C@@H]1NC(=O)[C@H](C(C)(C)C)NC(=O)[C@H](CCN)NC(=O)[C@H](Cc2c[nH]c3ccccc23)NC(=O)[C@H](CCN)NC(=O)[C@H](CCN)NC(=O)[C@H](CCCN)NC(=O)[C@H](CCN)NC(=O)[C@H](CC2CCCCC2)NC(=O)[C@H](Cc2c[nH]cn2)NC(=O)[C@H](Cc2c[nH]c3ccccc23)NC(=O)[C@@H]2CCCN2C(=O)[C@H]2CCCN2C(=O)[C@H](CO)NC1=O [compound 19, cyclo(-Trp-His-Cha-Dab-Orn-Dab-Dab-Trp-Dab-tBuGly-Ala-Ser-^DPro-Pro-)] (cyclo(WH[Cha][Dab][Orn][Dab][Dab]W[Dab][Tle]AS[dP]P))	0
CC(C)C[C@@H]1NC(=O)[C@@H]2CCCN2C(=O)[C@H]2CCCN2C(=O)[C@H](CO)NC(=O)[C@H](CO)NC(=O)[C@H](C2CCCCC2)NC(=O)[C@H](CCN)NC(=O)[C@H](Cc2c[nH]c3ccccc23)NC(=O)[C@H](CCN)NC(=O)[C@@H](CCN)NC(=O)[C@H](CCCN)NC(=O)[C@H](CCN)NC(=O)[C@H](C(C)(C)C)NC(=O)[C@H](Cc2c[nH]c3ccccc23)NC1=O [compound 36, cyclo(-Leu-Trp-tBuGly-Dab-Orn-^DDab-Dab-Trp-Dab-Chg-Ser-Ser-^DPro-Pro-)] (cyclo(LW[Tle][Dab][Orn][dDab][Dab]W[Dab][Chg]SS[dP]P))	1
CC(C)C[C@@H]1NC(=O)[C@@H]2CCCN2C(=O)[C@H]2CCCN2C(=O)[C@H](CO)NC(=O)[C@H](C)NC(=O)[C@H](C2CCCCC2)NC(=O)[C@H](CCN)NC(=O)[C@H](Cc2c[nH]c3ccccc23)NC(=O)[C@H](CCN)NC(=O)[C@@H](CCN)NC(=O)[C@H](CCCN)NC(=O)[C@H](CCN)NC(=O)[C@H](Cc2ccc(O)cc2)NC(=O)[C@H](Cc2c[nH]cn2)NC1=O [compound 23, cyclo(-Leu-His-Tyr-Dab-Orn-^DDab-Dab-Trp-Dab-Chg-Ala-Ser-^DPro-Pro-)] (cyclo(LHY[Dab][Orn][dDab][Dab]W[Dab][Chg]AS[dP]P))	3
CCC[C@@H]1NC(=O)[C@@H]2CCCN2C(=O)[C@H]2CCCN2C(=O)[C@H](CO)NC(=O)[C@H](C)NC(=O)[C@H](C(C)(C)C)NC(=O)[C@H](CCN)NC(=O)[C@H](Cc2c[nH]c3ccccc23)NC(=O)[C@H](CCN)NC(=O)[C@@H](CCN)NC(=O)[C@H](CCCN)NC(=O)[C@H](CCN)NC(=O)[C@H](Cc2ccc(O)cc2)NC(=O)[C@H](Cc2c[nH]cn2)NC1=O [compound 8, cyclo(-Nva-His-Tyr-Dab-Orn-^DDab-Dab-Trp-Dab-tBuGly-Ala-Ser-^DPro-Pro-)] (cyclo([Nva]HY[Dab][Orn][dDab][Dab]W[Dab][Tle]AS[dP]P))	1
CC(C)C[C@@H]1NC(=O)[C@@H]2CCCN2C(=O)[C@H]2CCCN2C(=O)[C@H](CO)NC(=O)[C@H](C)NC(=O)[C@H](C(C)(C)C)NC(=O)[C@H](CCN)NC(=O)[C@H](Cc2c[nH]c3ccccc23)NC(=O)[C@H](CCN)NC(=O)[C@@H](CCN)NC(=O)[C@H](CCCN)NC(=O)[C@H](CCN)NC(=O)[C@H](Cc2ccc(O)cc2)NC(=O)[C@H](Cc2c[nH]c3ccccc23)NC1=O [compound 28, cyclo(-Leu-Trp-Tyr-Dab-Orn-^DDab-Dab-Trp-Dab-tBuGly-Ala-Ser-^DPro-Pro-)] (cyclo(LWY[Dab][Orn][dDab][Dab]W[Dab][Tle]AS[dP]P))	1
CC(C)C[C@@H]1NC(=O)[C@@H]2CCCN2C(=O)[C@H]2CCCN2C(=O)[C@H](CO)NC(=O)[C@H](CO)NC(=O)[C@H](C(C)(C)C)NC(=O)[C@H](CCN)NC(=O)[C@H](Cc2c[nH]c3ccccc23)NC(=O)[C@H](CCN)NC(=O)[C@@H](CCN)NC(=O)[C@H](CCCN)NC(=O)[C@H](CCN)NC(=O)[C@H](Cc2ccc(O)cc2)NC(=O)[C@H](Cc2c[nH]cn2)NC1=O [compound 30, cyclo(-Leu-His-Tyr-Dab-Orn-^DDab-Dab-Trp-Dab-tBuGly-Ser-Ser-^DPro-Pro-)] (cyclo(LHY[Dab][Orn][dDab][Dab]W[Dab][Tle]SS[dP]P))	1
